Activity calls are given as the source filed them.
Tests used:
Prothrombin = Prothrombin (Homo sapiens, UniProt P00734); assay: Thrombin 1536 HTS Dose Response Confirmation. [Related pubchem assays: 1046 (Thrombin 1536 HTS; hits were confirmed in this assay)]; type: functional
[1] = viability loss in HEK293 cells – cell-based, plate reader, cherry-picked samples, cytotoxicity control, dose response (AID 743446); type: functional
[2] = Trypanosoma cruzi growth suppression in host cells – NIH3T3 host cells, beta-gal luminescence, confirmation (AID 2044); type: functional, cell-based;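 further: intracellular parasites grown in NIH/3T3 mouse fibroblasts as host cells; luminescent beta-galactosidase reporter signal from transgenic T. cruzi replicating inside host cells; inhibitors lower the luminescence signal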
[3] = target: Bifunctional protein GlmU (Mycobacterium tuberculosis, UniProt P9WMN3); assay: Inhibitors of Mycobacterial Glucosamine-1-phosphate acetyl transferase (GlmU). Secondary screen.; parameters: species or system Mycobacterium tuberculosis H37Rv
Bifunctional protein GlmU, sequence (P9WMN3 whole entry): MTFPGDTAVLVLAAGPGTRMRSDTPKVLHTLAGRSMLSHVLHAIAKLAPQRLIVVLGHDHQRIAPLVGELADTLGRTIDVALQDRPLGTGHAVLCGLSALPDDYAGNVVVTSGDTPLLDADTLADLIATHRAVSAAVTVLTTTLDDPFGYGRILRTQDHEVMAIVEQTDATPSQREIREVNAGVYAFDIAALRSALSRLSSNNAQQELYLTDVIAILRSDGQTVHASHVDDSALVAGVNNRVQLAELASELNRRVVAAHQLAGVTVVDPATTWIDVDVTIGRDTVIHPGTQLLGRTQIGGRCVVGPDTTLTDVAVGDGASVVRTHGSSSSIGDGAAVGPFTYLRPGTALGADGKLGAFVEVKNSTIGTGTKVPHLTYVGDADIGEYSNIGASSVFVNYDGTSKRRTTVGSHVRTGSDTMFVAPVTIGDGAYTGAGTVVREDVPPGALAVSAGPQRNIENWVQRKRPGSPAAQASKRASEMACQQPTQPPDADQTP

[4] = NIH3T3 cell viability loss – ATP luminescence, mouse fibroblasts, counter-screen, dose response (AID 2010); type: functional, cell-based;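 further: cells exposed to compound for about 90 hours before reading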
[5] = reduction of Shn3 3'UTR-driven luciferase in osteoblasts – cell-based, Clone20 osteoblasts, firefly luciferase, cherry-picked, dose response (AID 624132); type: functional;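 further: firefly luciferase luminescence from reporter carrying the Shn3 3'UTR in osteoblasts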
[6] = reduced cellular PGC1a acetyl-lysine signal – cell-based, cherry-picked samples, dose response (AID 720514); type: functional;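 further: potency may reflect raised or lowered acetylation signal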
[7] = target: T1, Polyadenylate-binding protein 1 (Homo sapiens, UniProt P11940); assay: MLLE binding blockers, Cy5 peptide tracer – biochemical, fluorescence polarization, Cy5-PAM2 peptide, secondary, miRNA deadenylation inhibitor project, dose response (AID 602260); type: functional; settings: read-out: IC50_Mean
T1 sequence (P11940 whole entry): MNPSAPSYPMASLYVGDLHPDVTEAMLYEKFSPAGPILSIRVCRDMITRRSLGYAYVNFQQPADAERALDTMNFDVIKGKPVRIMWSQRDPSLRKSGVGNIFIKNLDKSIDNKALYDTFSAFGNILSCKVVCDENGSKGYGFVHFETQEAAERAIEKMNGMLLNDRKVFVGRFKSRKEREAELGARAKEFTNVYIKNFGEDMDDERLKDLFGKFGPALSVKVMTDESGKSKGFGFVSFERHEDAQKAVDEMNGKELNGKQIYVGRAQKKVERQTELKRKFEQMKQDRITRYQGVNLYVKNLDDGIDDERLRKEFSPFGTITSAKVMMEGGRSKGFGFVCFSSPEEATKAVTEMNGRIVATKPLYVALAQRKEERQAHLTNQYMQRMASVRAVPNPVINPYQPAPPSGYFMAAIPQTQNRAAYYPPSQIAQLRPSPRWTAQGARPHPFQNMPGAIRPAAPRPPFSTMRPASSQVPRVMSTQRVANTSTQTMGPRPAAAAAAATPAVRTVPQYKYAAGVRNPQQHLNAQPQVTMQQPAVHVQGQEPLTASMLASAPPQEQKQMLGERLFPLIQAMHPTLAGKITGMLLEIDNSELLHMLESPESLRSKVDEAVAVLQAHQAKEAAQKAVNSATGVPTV

Protein RecA = target: T2, Protein RecA (Mycobacterium tuberculosis, UniProt P9WHJ3); assay: Fluorescence Cell-Free Homogeneous Dose Retest to Identify Inhibitors of RecA-Intein Splicing Activity. [Related pubchem assays (depositor defined):AID2097, AID2223, AID489010, AID492950]; type: functional
T2 sequence (P9WHJ3 whole entry): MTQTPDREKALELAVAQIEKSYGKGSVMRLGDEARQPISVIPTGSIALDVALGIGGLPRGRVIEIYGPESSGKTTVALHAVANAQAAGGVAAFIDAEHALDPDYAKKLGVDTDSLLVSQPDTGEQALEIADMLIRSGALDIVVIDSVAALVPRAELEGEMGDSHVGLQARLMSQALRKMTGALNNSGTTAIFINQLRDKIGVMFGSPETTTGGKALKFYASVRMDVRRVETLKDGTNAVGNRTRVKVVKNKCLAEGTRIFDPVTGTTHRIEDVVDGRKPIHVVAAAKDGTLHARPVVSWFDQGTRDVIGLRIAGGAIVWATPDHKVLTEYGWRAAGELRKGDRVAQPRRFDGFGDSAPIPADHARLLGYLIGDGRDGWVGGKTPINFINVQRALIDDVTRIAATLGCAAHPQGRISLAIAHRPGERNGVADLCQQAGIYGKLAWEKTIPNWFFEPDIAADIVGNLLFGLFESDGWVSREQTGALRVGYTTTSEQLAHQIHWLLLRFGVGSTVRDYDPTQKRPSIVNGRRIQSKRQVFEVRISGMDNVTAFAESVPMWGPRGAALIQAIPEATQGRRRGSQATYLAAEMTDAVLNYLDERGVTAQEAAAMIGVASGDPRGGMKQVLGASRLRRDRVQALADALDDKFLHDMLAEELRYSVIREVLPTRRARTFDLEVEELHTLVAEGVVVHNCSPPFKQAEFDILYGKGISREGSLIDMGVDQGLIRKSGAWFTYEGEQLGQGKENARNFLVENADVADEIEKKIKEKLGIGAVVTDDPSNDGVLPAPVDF

[8] = target: Heat shock protein HSP 90-alpha (Homo sapiens, UniProt P07900); type: functional, organism-based
CHO = CHO cell viability loss, potency – luminescence, cytotoxicity control for TLR9-MyD88 binding inhibitor project, dose response (AID 588339); type: functional, cell-based, hamster; settings: Cricetulus griseus;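 further: CHO cells stably coexpressing TLR9 and MyD88 fusions from primary screen; compound exposure lasted 48 hours before viability readout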
[9] = loss of viability in HepG2 cells – cell-based, CellTiter-Glo, cherry-picked, cytotoxicity control for Shn3 inhibitor project, dose response (AID 624134); type: functional
[10] = target: T1, Polyadenylate-binding protein 1; assay: MLLE domain peptide-binding blockers, IC50 – biochemical, fluorescence polarization, FITC-PAM2 peptide, dose response (AID 602259); type: functional; settings: read-out: IC50_Mean
[11] = target: T3, Short transient receptor potential channel 4 (Mus musculus, UniProt Q9QUQ5); assay: block of DAMGO-driven TRPC4 calcium entry – cell-based, HEK293 TRPC4/mu-opioid, Fluo-4 calcium, dose response (AID 434942); type: functional;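 further: potency of inhibitors blocking the TRPC4 calcium response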
T3 sequence (Q9QUQ5 whole entry): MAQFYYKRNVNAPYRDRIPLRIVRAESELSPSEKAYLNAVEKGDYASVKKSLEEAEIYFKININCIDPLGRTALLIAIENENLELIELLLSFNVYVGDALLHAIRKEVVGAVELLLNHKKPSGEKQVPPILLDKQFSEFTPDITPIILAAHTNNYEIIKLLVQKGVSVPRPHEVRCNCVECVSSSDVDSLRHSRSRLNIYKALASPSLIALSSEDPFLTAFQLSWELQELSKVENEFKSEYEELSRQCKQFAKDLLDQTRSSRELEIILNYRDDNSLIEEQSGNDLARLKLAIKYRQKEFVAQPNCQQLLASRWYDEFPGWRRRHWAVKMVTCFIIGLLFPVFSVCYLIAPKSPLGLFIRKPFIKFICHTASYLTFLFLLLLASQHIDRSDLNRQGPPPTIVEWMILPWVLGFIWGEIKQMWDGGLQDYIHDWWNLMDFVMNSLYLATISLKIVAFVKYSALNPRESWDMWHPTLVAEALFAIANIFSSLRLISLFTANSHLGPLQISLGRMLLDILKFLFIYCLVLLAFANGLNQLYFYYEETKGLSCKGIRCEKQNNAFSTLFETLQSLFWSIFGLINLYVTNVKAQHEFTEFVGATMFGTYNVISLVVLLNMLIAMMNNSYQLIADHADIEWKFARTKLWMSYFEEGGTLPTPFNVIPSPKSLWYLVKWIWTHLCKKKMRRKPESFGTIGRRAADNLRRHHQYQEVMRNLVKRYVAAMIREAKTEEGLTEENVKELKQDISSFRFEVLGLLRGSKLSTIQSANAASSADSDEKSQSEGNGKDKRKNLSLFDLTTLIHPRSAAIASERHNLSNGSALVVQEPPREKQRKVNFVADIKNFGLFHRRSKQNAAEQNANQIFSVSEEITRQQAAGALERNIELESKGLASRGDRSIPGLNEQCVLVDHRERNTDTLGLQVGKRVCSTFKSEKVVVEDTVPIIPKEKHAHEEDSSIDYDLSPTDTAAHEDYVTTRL

[12] = target: T4, Replicative DNA helicase DnaB (Mycobacterium tuberculosis, UniProt P9WMR3); assay: DnaB intein splicing inhibitors, dose response, biochemical, cell-free fluorescence (AID 449749); type: functional
T4 sequence (P9WMR3 whole entry): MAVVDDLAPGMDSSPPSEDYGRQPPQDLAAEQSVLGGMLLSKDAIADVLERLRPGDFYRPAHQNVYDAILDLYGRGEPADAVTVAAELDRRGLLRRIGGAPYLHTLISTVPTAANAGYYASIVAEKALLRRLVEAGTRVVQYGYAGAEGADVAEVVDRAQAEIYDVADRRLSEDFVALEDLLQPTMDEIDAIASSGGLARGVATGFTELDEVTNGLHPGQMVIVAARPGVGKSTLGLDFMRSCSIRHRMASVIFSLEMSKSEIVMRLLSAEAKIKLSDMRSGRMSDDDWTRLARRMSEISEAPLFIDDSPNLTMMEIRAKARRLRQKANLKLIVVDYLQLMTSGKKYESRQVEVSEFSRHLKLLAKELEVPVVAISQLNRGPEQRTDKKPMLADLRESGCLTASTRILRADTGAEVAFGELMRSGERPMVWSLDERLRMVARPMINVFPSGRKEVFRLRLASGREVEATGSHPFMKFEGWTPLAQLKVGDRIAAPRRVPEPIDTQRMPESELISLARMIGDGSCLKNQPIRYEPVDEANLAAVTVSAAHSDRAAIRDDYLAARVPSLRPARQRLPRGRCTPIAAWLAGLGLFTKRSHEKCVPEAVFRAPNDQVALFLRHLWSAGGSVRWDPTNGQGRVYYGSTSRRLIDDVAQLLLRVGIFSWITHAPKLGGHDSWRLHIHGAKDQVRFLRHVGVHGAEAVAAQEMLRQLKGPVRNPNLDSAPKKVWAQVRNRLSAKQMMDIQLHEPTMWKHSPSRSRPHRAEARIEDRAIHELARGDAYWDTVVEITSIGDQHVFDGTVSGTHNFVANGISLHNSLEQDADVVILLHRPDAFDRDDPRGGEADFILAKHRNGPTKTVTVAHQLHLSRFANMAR

[13] = non-specific 3'UTR reporter inhibition in Clone20-Shn3RL – cell-based, Renilla luciferase, cherry-picked, counter-screen for Shn3 inhibitor project, dose response (AID 624133); type: functional
Beta Lactamase = Beta Lactamase (Pseudomonas aeruginosa, UniProt Q932Y6); assay: BLA reporter interference, concentration series – BLA reporter cells, FRET fluorescence, artefact control for TLR9-MyD88 binding inhibitor project, dose response (AID 588341); type: cell-based;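 further: cell based assay in CHO-K1 cells stably expressing beta-lactamase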
Beta Lactamase, sequence (Q932Y6 whole entry): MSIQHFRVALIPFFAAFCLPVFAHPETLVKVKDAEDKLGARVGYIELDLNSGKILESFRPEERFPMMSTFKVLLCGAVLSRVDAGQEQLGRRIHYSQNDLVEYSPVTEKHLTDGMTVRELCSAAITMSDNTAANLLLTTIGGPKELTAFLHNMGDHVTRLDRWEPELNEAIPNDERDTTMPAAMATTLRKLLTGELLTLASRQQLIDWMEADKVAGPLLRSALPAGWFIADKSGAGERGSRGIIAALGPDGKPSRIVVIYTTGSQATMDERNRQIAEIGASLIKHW

[14] = blockers of bursicon-stimulated LGR2 cAMP reporter – cell-based, HEK293, CRE-luciferase reporter, cherry pick, set 2, dose response (AID 743343); type: functional;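 further: transfected cells were stimulated with diluted bursicon conditioned medium after compound addition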
[15] = toxicity toward HepG2 liver cells – cell-based, plate reader, cherry-pick, antagonist series, cytotoxicity control, dose response (AID 743416); type: functional
[16] = A549 cell cytotoxicity, dose response, cytotoxicity control, plate reader, cherry-pick, antagonist series (AID 743412); type: functional, cell-based
[17] = blockade of melanocortin 4 receptor signaling – cell-based, plate reader, cherry pick, counter-screen for LGR2 antagonist project, dose response (AID 743444); type: functional;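 further: transfected HEK 293 cells stimulated with alpha-MSH peptide; potency of inhibitors of the alpha-MSH evoked signal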

With `Cn1cc(C(=O)NCc2cccs2)c(=O)c2cc(S(=O)(=O)N3CCCC3)ccc21` the IC50 (Prothrombin) was 0.691 µM (active).
In the case of `CCCNC(=O)c1nnsc1[S+]([O-])c1ccc(Cl)cc1` (stereo unspecified), the AC50 [1] is reported as 16 µM (active), the EC50 [2] is reported as 0.886 µM (active) and the IC50 [3] is reported as 103 µM (active). The EC50 [4] was 2.21 µM (active), the AC50 [5] was 1.26 µM (active) and the AC50 [6] was 12.8 µM (active). For the same compound, the IC50 [7] was > 66 µM (inactive), the EC50 (Protein RecA) was 24.4 µM (inconclusive) and the AC50 [8] was 2.2 µM (active). The IC50 (CHO) was 1.81 µM (active), the AC50 [9] was 29.7 µM (active) and the IC50 [10] was > 66 µM (inactive). The EC50 [11] was 7.5 µM (active), the AC50 [12] was 33.8 µM (active) and the AC50 [13] was 6.98 µM (active). The IC50 (Beta Lactamase) was 15.6 µM (inactive), the AC50 [14] was 1.85 µM (active) and the AC50 [15] was 7.07 µM (active). The AC50 [16] was 4.44 µM (active) and the AC50 [17] was 2.29 µM (active).

— ChEMBL document CHEMBL1201862, “PubChem BioAssay data set” (2004)
